Source: patent US20220387410A1, “4-[5-[(rac)-1-[5-(3-Chlorophenyl)-3-isoxazolyl]ethoxy]-4-methyl-4H-1,2,4-triazol-3-yl]pyridine for use in prevention and/or treatment of surmenage in a mammal” (priority 2019, published 2022)
Like-named read-outs stand apart in the source and are kept apart here. Marks after values point to notes of the source that are not given here.

Columns and labels:
Mice = conditions: p<0.001, cited from earlier work
rats = assay: Learned helplessness studies; type: in vivo, rat
Description: Nomura S. et al., Studies on animal model of depression: review and perspective, Review, Yakubutsu Seishin Kodo, 1989 December; 9(4):349-58.
TT001 was used in learned helplessness studies in rats.

humans = conditions: cited from earlier work
[1] = tested on: cat or dog undergoing elective castration or ovariohysterectomy; assay: Recovery after neutering, TT001 added as pre-medication (Example 1); type: in vivo
Description: To study recovery after neutering, cage demeanour scoring using a simple descriptive scale was used. The dogs were premedicated with acepromazine and pethidine, intermuscular (i.m.) in a first group, or in a second group TT001 was also added as pre-medication.
(§1) Twenty to forty minutes after pre-medication, the sedation was scored with the SDS (simple descriptive scale). The dogs were induced with propofol. Anesthesia was maintained with isoflurane in oxygen. Intraoperative analgesia was provided with morphine, prior to surgery. At the end of the surgery, group 1 received meloxicam, while group 2 received no additional treatment.
(§2) At the end of the procedure and recovery SDS was scored.

[2] = tested on: cat or dog undergoing elective castration or ovariohysterectomy; assay: Recovery after neutering, TT001 plus meloxicam vs meloxicam (Example 2); type: in vivo
Description: To study recovery after neutering, cage demeanour scoring using a simple descriptive scale was used. The dogs were premedicated with acepromazine and pethidine, i.m. in a first group, and meloxicam orally or in a second group TT001 was also added as pre-medication.
as §1, with “pre-medication” for “pre-medication,”, “continued to receive” for “received”, “continued to receive TT001 as well as meloxicam. No” for “received no”, “treatment was administered.” for “treatment.”
as §2

TLESR = conditions: healthy volunteers, cited from earlier work
dogs [3] = assay: Toxicological studies in dogs, maximum 52 weeks, gavage; type: in vivo, dog; conditions: dogs, 2, 6, 7 or 31 mg/kg by gavage, after 52 weeks
Description: Toxicological studies for TT001 in dogs, were performed on dogs using 2, 6, 7 or 31 mg/kg, for a maximum of 52 weeks. The dogs were fed with gavage throughout this period and blood samples were taken throughout the period.
Balcome at al Contemporary Topics 2004 by the American Association for Laboratory Animal Science. Vol 43. […] In addition, the animals are separated and live in small areas which further increase the stress.

[4] = Dissolution of TT001 in I.V. formulation vehicle; type: physicochemical; conditions: 0.1-10 mg/mL in 40% w/v HPβCD in water for injection; a couple of hours for complete dissolution
Description: Formulation Method for the Preparation of TT001 for I.V. Dosing, 0.1 to 10 mg/ml
The formulation method is applicable at concentrations in formulation between 0.1 and 10 mg/mL corresponding to 0.262 and 26.2 μmol/mL
Preparation of 40% w/v HPβCD solution in water for injection
Preparation of TT001 I.V. formulations between 0.1 and 10 mg/ml

mouse FST behavior = assay: Forced Swim Test; type: in vivo; conditions: for Immobility duration: mouse FST, vehicle 112.5 ± 14.10
Description: TT001 has been used in the Forced Swim Test. _For protocol see Can A., et al., The Mouse Forced Swim Test, J Vis Exp. 2012; (59): 3638.

dogs [5] = conditions: cited from earlier work
[6] = cat or dog undergoing elective castration or ovariohysterectomy
[7] = group 2 (TT001 pre-medication) vs group 1
[8] = group 2 (TT001 + meloxicam) vs group 1 (meloxicam)

CN1CC(=O)NC1=NC(=O)Nc1cccc(Cl)c1 [Fenobam]
stress-induced hyperthermia (SIH) (Mice; 10 mg/kg): significantly reversed | stress-induced hyperthermia (SIH) (Mice; 30 mg/kg): significantly reversed

C[C@@H](Oc1nnc(-c2ccncc2)n1C)c1cc(-c2cccc(Cl)c2)on1 [TT001, 4-[5-[(1R)-1-[5-(3-Chlorophenyl)-3-isoxazolyl]ethoxy]-4-methyl-4H-1,2,4-triazol-3-yl]pyridine]
Escape Failures, Day 4 Mean (rats; 1.8 μmol/kg, vehicle 11.1): 2.2 | Escape Failures, Day 3 Mean (rats; 1.8 μmol/kg, vehicle 23.2): 6.9 | Escape Failures, Total Day 3 + Day 4 (rats; 1.8 μmol/kg, vehicle 34.25, p < 0.05 vs vehicle): 9.1 ^a | stomach ulcers (rats; learned helplessness studies): did not appear | effect on anxiety (humans; humans): no effect | clinical effect in all indications (chronic pain, anxiety, GERD) (humans; man, oral, clinical development discontinued): lack of effect | effect on duration of the recovery period [1, 6]: positive effect | cortisol values ([1]; group 2 (TT001) vs commonly used anesthesia protocol): Lower | Time to extubation ([1]; group 2 (TT001 added as pre-medication) vs group 1 (acepromazine, pethidine; meloxicam after surgery)): shorter | Time to lifting the head after surgery [1, 7]: shorter | Time to raising from the bed after surgery [1, 7]: shorter | Time to start of spontaneous/voluntary urination after surgery [1, 7]: shorter | Time to starting to eat after surgery [1, 7]: shorter | nausea [1, 7]: Less | effect on duration for the recovery period [2, 6]: positive effect | Time to extubation [2, 8]: shorter | Time to lifting the head after surgery [2, 8]: shorter | Time to raising from the bedding after surgery [2, 8]: shorter | Time to start of spontaneous/voluntary urination after surgery [2, 8]: shorter | Time to starting to eat after surgery [2, 8]: shorter | cortisol values [2, 8]: Lower | nausea [2, 8]: Less | time in intensive care/PACU unit [2, 8]: Less | effect on TLESR (TLESR; 13 mg (about 0.19 mg/kg), 2 to 3 hours after food-intake): some effect | side effects (TLESR; high doses of 13 mg): Some serious side effects | effect on reflux (TLESR; prior to food intake and 1-2 hours after food intake): no significant effect | signs of gastric ulcer (dogs [3]): none of the animals showed signs of gastric ulcer | dissolution [4]: moderate | Immobility duration (mouse FST behavior; TT001 3 μmol/kg): 51.15 ± 7.788 ^a sec | Immobility duration (mouse FST behavior; TT001 10 μmol/kg): 47.45 ± 11.45 ^a sec | Immobility duration (mouse FST behavior; TT001 30 μmol/kg): 44.83 ± 4.693 ^a sec | signs of gastric ulcer or changes in mucosa (mouse FST behavior; test animals of the mouse Forced Swim Test): none of the test animals had signs of gastric ulcer

COc1cccc(C2(O)CCCCC2CN(C)C)c1 (centres unmarked) [Tramadol]
pain killer effect (dogs [5]): not present
